According to paper PMC11945486, “TAS1R2/TAS1R3 Single-Nucleotide Polymorphisms Affect Sweet Taste Receptor Activation by Sweeteners: The SWEET Project” (Nutrients, 2025):

Biological target: T1, human TAS1R2-C9S (subunit alone) (Homo sapiens, UniProt Q8TE23)
T1 construct: expressed in transfected cells; host or cells: HEK293T-Gα16gust44
T1 sequence (Q8TE23 20-839): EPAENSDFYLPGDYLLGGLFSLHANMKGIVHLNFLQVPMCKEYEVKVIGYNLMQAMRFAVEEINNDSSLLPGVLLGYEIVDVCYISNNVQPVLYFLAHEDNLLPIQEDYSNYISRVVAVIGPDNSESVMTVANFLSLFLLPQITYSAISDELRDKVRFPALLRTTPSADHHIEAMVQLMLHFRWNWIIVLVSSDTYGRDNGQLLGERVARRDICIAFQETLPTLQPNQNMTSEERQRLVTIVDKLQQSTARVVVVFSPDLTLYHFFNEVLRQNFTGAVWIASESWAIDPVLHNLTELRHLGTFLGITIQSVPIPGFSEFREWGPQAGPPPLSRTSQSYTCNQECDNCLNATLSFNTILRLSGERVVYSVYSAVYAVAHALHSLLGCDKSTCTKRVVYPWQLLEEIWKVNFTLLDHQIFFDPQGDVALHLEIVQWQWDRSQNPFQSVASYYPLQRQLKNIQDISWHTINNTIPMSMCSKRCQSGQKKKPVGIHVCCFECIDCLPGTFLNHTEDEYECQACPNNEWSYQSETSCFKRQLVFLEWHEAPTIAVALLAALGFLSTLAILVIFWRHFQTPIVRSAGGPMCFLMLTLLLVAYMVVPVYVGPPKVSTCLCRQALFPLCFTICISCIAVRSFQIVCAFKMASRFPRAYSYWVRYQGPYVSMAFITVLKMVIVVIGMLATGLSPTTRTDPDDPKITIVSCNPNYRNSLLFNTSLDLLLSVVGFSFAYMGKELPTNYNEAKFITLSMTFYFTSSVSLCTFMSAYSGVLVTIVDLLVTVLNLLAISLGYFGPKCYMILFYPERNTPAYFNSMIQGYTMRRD
Assay: Calcium mobilisation assay, TAS1R2-C9S subunit alone
Format: cell-based
Text: The coding sequences for TAS1R2 and TAS1R3 were commercially synthesised, and the human codon was optimised for expression in human cells. The coding sequences of human TAS1R2 and TAS1R3 were subcloned and inserted into the mammalian expression vectors pcDNA6/myc-HisA and pcDNA4/myc-HisA (Invitrogen; Thermo Fisher Scientific; Illkirch, France) between the EcoRI and NotI restriction sites, generating the plasmids pcDNA6-TAS1R2 and pcDNA4-TAS1R3, respectively. To increase protein expression in mammalian cells, an upstream start codon was used, which was a sequence called MAX, corresponding to the QBI SP163 element also described in pcDNA4-HisMax (Invitrogen; Thermo Fisher Scientific; Illkirch, France). To measure the expression level of the receptor by immunohistochemistry, we used the FLAG sequence ([…]) in the C-terminal position, which encodes the FLAG tag epitope. […]
The HEK293T cells were kindly provided by Jay P. Slack (Givaudan Flavors Corporation; Cincinnati, OH, USA). […] The fluorescence intensity was measured for 90 s (excitation 488 nm, emission 510 nm) in an automated fluorometric FlexStation®3 Multi-Mode microplate reader (Molecular Devices; San Jose, CA, USA). […] The Ca^2+ changes were expressed as fractional changes in fluorescent light intensity: ΔF/F = (F − F0)/F0, where F was the fluorescent light intensity at each point, and F0 was the value of emitted fluorescent light prior to stimulus application. To calculate dose–response relationships, the changes in fluorescence upon stimulus application were averaged, mock-subtracted and baseline-corrected. […] The half-maximal effective concentrations (EC50 values) and maximal signal amplitudes were calculated using SigmaPlot software (version 15.0) (Systat Software; San Jose, CA, USA).
For in vitro calcium mobilisation assay performed on hTAS1R2-SNPs, hTAS1R3-SNPs and mTAS1R3-I60T, 6 to 7 concentrations were tested for each sweet compound, plus buffer alone. All concentration–receptor combinations were measured in duplicate, and each experiment was repeated at least 4 times (8 wells/concentration). […]

EC50: 190 ± 26.6 µM
R1 = Variant EC50/WT EC50: 2.1
Max ΔF/F0 (maximal signal amplitude): 0.44 ± 0.02
SMILES: C=C(C)[C@@H]1CC=C(/C=N/O)CC1 [Perillartine, perillartine]
